{"source": "paper PMC11220827", "about": "(Frontiers in Pharmacology, 2024)", "molecular_target": "T1, TRβ (Homo sapiens, UniProt P10828)", "T1 sequence (P10828 1-461)": "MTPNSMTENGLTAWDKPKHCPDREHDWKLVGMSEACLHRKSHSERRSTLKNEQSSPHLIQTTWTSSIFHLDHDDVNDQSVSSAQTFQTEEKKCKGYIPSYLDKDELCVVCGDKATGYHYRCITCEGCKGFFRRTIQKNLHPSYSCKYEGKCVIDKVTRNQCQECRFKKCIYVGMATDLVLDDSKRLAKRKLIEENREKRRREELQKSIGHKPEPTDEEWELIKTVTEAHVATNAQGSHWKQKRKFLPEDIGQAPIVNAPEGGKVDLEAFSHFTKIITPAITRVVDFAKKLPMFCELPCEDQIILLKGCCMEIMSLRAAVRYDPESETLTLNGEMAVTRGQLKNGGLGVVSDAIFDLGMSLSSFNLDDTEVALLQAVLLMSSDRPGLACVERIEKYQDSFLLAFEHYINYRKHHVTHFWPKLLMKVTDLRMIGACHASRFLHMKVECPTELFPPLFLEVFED", "conditions": "reference", "method": "using the U2-OS based CALUX cytotox bioassay. The cytotoxicity of each test chemical was assessed using the U2-OS based cytotoxicity CALUX bioassay. Concentrations causing >20% reduction of luminescence were considered cytotoxic.\ncytotoxicity (relative induction in the cytotoxicity CALUX bioassay > 80%) were used for final\nevaluation of analysis results.\ninduction in the cytotox CALUX bioassay > 80%) were used for final evaluation of analysis results.\nAll analysis results were expressed in molar (M) final in well.\nFor determination of the (anti-)ERα, (anti-)AR and (anti-)TRβ CALUX activities, CALUX cells were\nseeded in assay medium. Following exposure of the CALUX cells to serial dilutions of the\ncompounds in triplicate for 24 h, the induction of luciferase production was quantified by measuring\nluminescence following addition of the substrate luciferin. For antagonist assays, a fixed\nconcentration of assay agonist was present in each well, to generate a basal signal. On each plate, a\ncomplete calibration curve for each respective bioassay was also analysed using the relevant reference\ncompounds. For the analyses in the presence of rat liver S9, 0.03% (v/v) of PB/BNF induced rat liver\nS9 mix (including NADPH and an NADPH-regenerating system) was added to the cells directly after\naddition of the compounds, which remained there for the duration of the exposure period (24 h) (van\nRelative light units (RLUs) of the CALUX assays were analysed as follows. For agonist assays,\nbackground values (exposure to DMSO only) were subtracted, and the maximum activity of the\nassay’s reference compound was set to 100%. For antagonist assays, the basal signal (exposure to fixed concentration of agonist only) was set to 100%. Activity of the samples was scaled accordingly,\nresulting in expression of the data as “percentage of maximum reference response”. Graphs were\ngenerated using the statistical software package GraphPad Prism V5.03. Using these graphs, lowest\neffect concentrations (LOECs) and PC50 concentrations were determined; LOEC is defined as the […]"}
{"smiles": "CC1=C[C@H]2O[C@@H]3[C@H](O)C[C@](C)([C@@]2(CO)[C@H](O)C1=O)[C@]31CO1", "note": "[Deoxynivalenol, reference compound]", "values": [{"measurement": "Anti-TRß antithyroid LOEC, reference compound", "value": "−6.9", "unit": "Log M"}]}
